Test results as given in patent US20140303182A1, “PHARMACEUTICALLY ACCEPTABLE SALTS OF QUINOLINONE COMPOUNDS HAVING IMPROVED PHARMACEUTICAL PROPERTIES” (NOVARTIS AG, priority 2003, published 2014).
Counter-ions that a name gives are not always drawn. Like-named read-outs stand apart in the source and are kept apart here.

Key:
[1] = Aqueous equilibrium solubility and pH at saturation; format: physicochemical; details: water, 24 hours at 22° C., HPLC, free base equivalent
Crystallinity by XRPD = format: physicochemical
Procedure: XRPD analyses were carried out on a Shimadzu XRD-6000 X-ray powder diffractometer using Cu Kα radiation. The instrument is equipped with a fine focus X-ray tube. The tube voltage and amperage were set to 40 kV and 40 mA, respectively. The divergence and scattering slits were set at 1° and the receiving slit was set at 0.15 mm. Diffracted radiation was detected by a NaI scintillation detector. A theta-two theta continuous scan at 3°/minute (0.4 seconds/0.02° step) from […] was used.

[2] = Chemical stability, solid state (HPLC); details: solid state
[3] = 30° C./60% Relative humidity, listed as Sulphate
[4] = 40° C./70% Relative humidity, listed as Sulphate

CN1CCN(c2ccc3nc(-c4c(N)c5c(F)cccc5[nH]c4=O)[nH]c3c2)CC1 [Bis-Acetate, 4-Amino-5-fluoro-3-[6-(4-methylpiperazin-1-yl)-1H-benzimidazol-2-yl]-1H-quinolin-2-one]
Solubility [1]: 31.9 mg FB/mL
Crystallinity (Crystallinity by XRPD): mixture of crystalline
Crystallinity (Crystallinity by XRPD; listed as bis-acetate): mixture of crystalline and amorphous material

CN1CCN(c2ccc3nc(-c4c(N)c5c(F)cccc5[nH]c4=O)[nH]c3c2)CC1 [Bis-Glycinate, 4-Amino-5-fluoro-3-[6-(4-methylpiperazin-1-yl)-1H-benzimidazol-2-yl]-1H-quinolin-2-one]
Solubility [1]: 0.11 mg FB/mL

CN1CCN(c2ccc3nc(-c4c(N)c5c(F)cccc5[nH]c4=O)[nH]c3c2)CC1 [Bis-Lactate, 4-Amino-5-fluoro-3-[6-(4-methylpiperazin-1-yl)-1H-benzimidazol-2-yl]-1H-quinolin-2-one]
Solubility [1]: 304 mg FB/mL
Crystallinity (Crystallinity by XRPD): mixture of crystalline
Crystallinity (Crystallinity by XRPD; listed as bis-lactate): mixture of crystalline and amorphous material
Area % at Time = 0 ([2]; 30° C./60% Relative humidity): 98.71 Area %
Area % at Time = 6 weeks ([2]; 30° C./60% Relative humidity): 98.64 Area %
Area % at Time = 0 ([2]; 40° C./70% Relative humidity): 98.99 Area %
Area % at Time = 6 weeks ([2]; 40° C./70% Relative humidity): 97.92 Area %

CN1CCN(c2ccc3nc(-c4c(N)c5c(F)cccc5[nH]c4=O)[nH]c3c2)CC1 [Bis-mesylate, 4-Amino-5-fluoro-3-[6-(4-methylpiperazin-1-yl)-1H-benzimidazol-2-yl]-1H-quinolin-2-one]
Crystallinity (Crystallinity by XRPD): mixture of crystalline
Crystallinity (Crystallinity by XRPD; listed as bis-mesylate): crystalline
Area % at Time = 0 ([2]; 30° C./60% Relative humidity): 99.01 Area %
Area % at Time = 6 weeks ([2]; 30° C./60% Relative humidity): 98.12 Area %
Area % at Time = 0 ([2]; 40° C./70% Relative humidity): 98.78 Area %
Area % at Time = 6 weeks ([2]; 40° C./70% Relative humidity): 98.35 Area %

CN1CCN(c2ccc3nc(-c4c(N)c5c(F)cccc5[nH]c4=O)[nH]c3c2)CC1 [BisHCl, 4-Amino-5-fluoro-3-[6-(4-methylpiperazin-1-yl)-1H-benzimidazol-2-yl]-1H-quinolin-2-one]
Solubility [1]: 42 mg FB/mL

CN1CCN(c2ccc3nc(-c4c(N)c5c(F)cccc5[nH]c4=O)[nH]c3c2)CC1 [Glycinate, 4-Amino-5-fluoro-3-[6-(4-methylpiperazin-1-yl)-1H-benzimidazol-2-yl]-1H-quinolin-2-one]
Solubility [1]: 0.0638 mg FB/mL

CN1CCN(c2ccc3nc(-c4c(N)c5c(F)cccc5[nH]c4=O)[nH]c3c2)CC1 [Hemi-malate, 4-Amino-5-fluoro-3-[6-(4-methylpiperazin-1-yl)-1H-benzimidazol-2-yl]-1H-quinolin-2-one]
Solubility [1]: 6.39 mg FB/mL
Crystallinity (Crystallinity by XRPD): crystalline

CN1CCN(c2ccc3nc(-c4c(N)c5c(F)cccc5[nH]c4=O)[nH]c3c2)CC1 [Hydrochloride, 4-Amino-5-fluoro-3-[6-(4-methylpiperazin-1-yl)-1H-benzimidazol-2-yl]-1H-quinolin-2-one]
Solubility [1]: 26.3 mg FB/mL

CN1CCN(c2ccc3nc(-c4c(N)c5c(F)cccc5[nH]c4=O)[nH]c3c2)CC1 [Maleate, 4-Amino-5-fluoro-3-[6-(4-methylpiperazin-1-yl)-1H-benzimidazol-2-yl]-1H-quinolin-2-one]
Solubility [1]: 0.866 mg FB/mL

CN1CCN(c2ccc3nc(-c4c(N)c5c(F)cccc5[nH]c4=O)[nH]c3c2)CC1 [Mono-acetate, 4-Amino-5-fluoro-3-[6-(4-methylpiperazin-1-yl)-1H-benzimidazol-2-yl]-1H-quinolin-2-one]
Solubility [1]: 84.4 mg FB/mL
Solubility ([1]; listed as Acetate): 15.4 mg FB/mL
Crystallinity (Crystallinity by XRPD): amorphous
Crystallinity (Crystallinity by XRPD; listed as Acetate): mixture of crystalline
Crystallinity (Crystallinity by XRPD; listed as acetate salt): amorphous

CN1CCN(c2ccc3nc(-c4c(N)c5c(F)cccc5[nH]c4=O)[nH]c3c2)CC1 [Mono-citrate, 4-Amino-5-fluoro-3-[6-(4-methylpiperazin-1-yl)-1H-benzimidazol-2-yl]-1H-quinolin-2-one]
Solubility [1]: 0.456 mg FB/mL
Solubility ([1]; listed as Citrate): 27.2 mg FB/mL
Crystallinity (Crystallinity by XRPD): crystalline
Crystallinity (Crystallinity by XRPD; listed as citrate): crystalline

CN1CCN(c2ccc3nc(-c4c(N)c5c(F)cccc5[nH]c4=O)[nH]c3c2)CC1 [Mono-tartrate, 4-Amino-5-fluoro-3-[6-(4-methylpiperazin-1-yl)-1H-benzimidazol-2-yl]-1H-quinolin-2-one]
Solubility ([1]; listed as L-Tartrate): 103.4 mg FB/mL
Crystallinity (Crystallinity by XRPD): crystalline
Crystallinity (Crystallinity by XRPD; listed as L-Tartrate): mixture of crystalline
Crystallinity (Crystallinity by XRPD; listed as L-tartrate): mixture of crystalline and amorphous material

CN1CCN(c2ccc3nc(-c4c(N)c5c(F)cccc5[nH]c4=O)[nH]c3c2)CC1 [Nitrate, 4-Amino-5-fluoro-3-[6-(4-methylpiperazin-1-yl)-1H-benzimidazol-2-yl]-1H-quinolin-2-one]
Solubility [1]: 6.7 mg FB/mL

CN1CCN(c2ccc3nc(-c4c(N)c5c(F)cccc5[nH]c4=O)[nH]c3c2)CC1 [Phosphate, 4-Amino-5-fluoro-3-[6-(4-methylpiperazin-1-yl)-1H-benzimidazol-2-yl]-1H-quinolin-2-one]
Solubility [1]: 13.8 mg FB/mL
Crystallinity (Crystallinity by XRPD): mixture of crystalline
Crystallinity (Crystallinity by XRPD; listed as phosphate): mixture of crystalline and amorphous material
Area % at Time = 0 ([2]; 30° C./60% Relative humidity): 98.47 Area %
Area % at Time = 6 weeks ([2]; 30° C./60% Relative humidity): 99.28 Area %
Area % at Time = 0 ([2]; 40° C./70% Relative humidity): 98.84 Area %
Area % at Time = 6 weeks ([2]; 40° C./70% Relative humidity): 98.86 Area %

CN1CCN(c2ccc3nc(-c4c(N)c5c(F)cccc5[nH]c4=O)[nH]c3c2)CC1 [Sulfate, 4-Amino-5-fluoro-3-[6-(4-methylpiperazin-1-yl)-1H-benzimidazol-2-yl]-1H-quinolin-2-one]
Solubility [1]: 19.7 mg FB/mL
Crystallinity (Crystallinity by XRPD): mixture of crystalline
Crystallinity (Crystallinity by XRPD; listed as sulfate): mixture of crystalline and amorphous material
Area % at Time = 0 [2, 3]: 98.75 Area %
Area % at Time = 6 weeks [2, 3]: 99.39 Area %
Area % at Time = 0 [2, 4]: 98.96 Area %
Area % at Time = 6 weeks [2, 4]: 98.9 Area %
